The values below come from ChEMBL document CHEMBL1201862, “PubChem BioAssay data set” (2004).

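48-hour exposure; five concentrations; linearly interpolated endpoints. GI50: concentration for 50% inhibition of growth.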 Activity calls are given as the source filed them. Rule as the data show it: active = GI50 up to about 1.1 µM and inactive = higher. Some results are limits rather than exact numbers.

Test systems include EKVX; MDA-MB-231; MCF7; NCI-H23; MDA-N; A549; SF-295; HL-60; CCRF-CEM; NCI-H522; ACHN; HOP-62; CAKI-1; SK-OV-3; OVCAR-8; Malme-3M; SR; SW-620; HOP-92.
What all share (assay): inhibition of tumour cell growth, NCI panel, 48 h

As to `O=S1(=O)c2ccccc2NC(=S)CC1c1ccccc1` (stereo not drawn), the GI50 with EKVX, in the test with MDA-MB-231, in the test with MCF7, with NCI-H23, in the test with MDA-N and in the test with A549 was > 100 µM (inactive) in each case. For the same compound, the GI50 with SF-295 was 26.3 µM (inactive); in the test on HL-60, > 100 µM (inactive); with CCRF-CEM it was > 100 µM (inactive); with NCI-H522 it was > 100 µM (inactive); in the test on ACHN it was > 100 µM (inactive); in the test with HOP-62, > 100 µM (inactive). Moreover, the GI50 with CAKI-1 was > 100 µM (inactive); in the test on SK-OV-3, > 100 µM (inactive); in the test with OVCAR-8 it was 72.9 µM (inactive); in the test on Malme-3M, > 100 µM (inactive); with SR it was > 100 µM (inactive).

With `CCOC(=O)C1CCCCc2sc(N)c(C#N)c21` (stereo not drawn), the GI50 in the test with EKVX, with SW-620, with MDA-MB-231, with MCF7, in the test with NCI-H23 and with MDA-N was > 100 µM (inactive) in each case. The GI50 in the test on A549, in the test on HL-60, in the test on HOP-92, in the test with ACHN, in the test on HOP-62 and with OVCAR-8 was > 100 µM (inactive) in each case. Moreover, the GI50 is 71.1 µM (inactive) in the test with Malme-3M and > 100 µM (inactive) with SR.

Turning to `C=CCOCn1cnc2c(=O)[nH]c(N)nc21`, the GI50 with EKVX, in the test on SW-620, in the test on MDA-MB-231, in the test with MCF7, with NCI-H23 and in the test with MDA-N was > 100 µM (inactive) throughout. The GI50 with A549, in the test on SF-295, in the test with HL-60, in the test on CCRF-CEM, in the test with ACHN and in the test on HOP-62 was > 100 µM (inactive) each time. In addition, the GI50 with CAKI-1, with SK-OV-3, in the test with OVCAR-8, in the test on Malme-3M and with SR was > 100 µM (inactive) each time.

With `NNC1=N/C(=C\c2ccco2)C(=O)N1`, the GI50 in the test on EKVX, in the test with SW-620, with MDA-MB-231, in the test with MCF7, with NCI-H23 and in the test with MDA-N was > 100 µM (inactive) in each case. For the same compound, the GI50 with A549 is 80.9 µM (inactive); in the test with SF-295 it was > 100 µM (inactive); in the test on HL-60, > 100 µM (inactive); with CCRF-CEM, > 10 µM (inactive); in the test with NCI-H522, 50.6 µM (inactive); in the test with ACHN it was 47.5 µM (inactive). Moreover, the GI50 in the test with HOP-62, with CAKI-1, in the test with SK-OV-3, in the test with OVCAR-8, in the test with Malme-3M and in the test on SR was > 100 µM (inactive) throughout.

As to `CC12CCC(=O)C=C1CCC1C2C(O)CC2(C)C(c3csc(N)n3)CCC12.O=S(=O)(O)c1ccc(Br)cc1` (stereo not drawn), the GI50 with EKVX, in the test on SW-620, with MDA-MB-231, in the test on MCF7, with NCI-H23 and in the test with MDA-N was > 100 µM (inactive) throughout. The GI50 is > 100 µM (inactive) in the test on A549; > 100 µM (inactive) in the test with SF-295; < 0.01 µM (active) in the test on CCRF-CEM; > 100 µM (inactive) with HOP-92; > 100 µM (inactive) in the test on NCI-H522; > 100 µM (inactive) in the test on ACHN. The GI50 with HOP-62, with CAKI-1, with SK-OV-3, in the test with OVCAR-8, in the test on Malme-3M and with SR was > 100 µM (inactive) in each case.

In the case of `CCOC(=O)/C=C1\Nc2ccccc2C12CCc1c([nH]c3ccccc13)C2C(=O)OCC` (stereo not drawn), the GI50 with EKVX was 18.8 µM (inactive); in the test on SW-620 it was 17.8 µM (inactive); in the test on MDA-MB-231 it was 18 µM (inactive); in the test with MCF7 it was 17.5 µM (inactive); in the test on NCI-H23, 43.5 µM (inactive); in the test on MDA-N, 7.85 µM (inactive). Further, the GI50 in the test with A549 is 29.7 µM (inactive); in the test with SF-295, 79.4 µM (inactive); with HL-60 it was 26.1 µM (inactive); in the test with CCRF-CEM, 29 µM (inactive); with NCI-H522, 21.5 µM (inactive); in the test with ACHN, 49.2 µM (inactive). For the same compound, the GI50 was > 100 µM (inactive) in the test on HOP-62; 11.7 µM (inactive) in the test on CAKI-1; 30.2 µM (inactive) in the test with SK-OV-3; 88.7 µM (inactive) in the test on OVCAR-8; 10.3 µM (inactive) in the test with Malme-3M; 25.8 µM (inactive) with SR.

For `COc1cc(C(c2ccc3c(c2)OCO3)C2SCCCS2)cc(OC)c1OC` (stereo not drawn), the GI50 was 2.79 µM (inactive) in the test with EKVX; 3.11 µM (inactive) with SW-620; 2.3 µM (inactive) in the test on MDA-MB-231; 2.62 µM (inactive) with MCF7; 3.76 µM (inactive) with NCI-H23; 0.372 µM (active) with MDA-N. For the same compound, the GI50 in the test with A549 was 4.22 µM (inactive); in the test with SF-295, 1.94 µM (inactive); in the test on CCRF-CEM, 1.49 µM (inactive); in the test on NCI-H522, 2.11 µM (inactive); with ACHN, 5.52 µM (inactive); in the test with HOP-62 it was 3.03 µM (inactive). For the same compound, the GI50 in the test on CAKI-1 was 2.67 µM (inactive); with SK-OV-3, 2.81 µM (inactive); in the test on OVCAR-8, 4.71 µM (inactive); with Malme-3M, 3.36 µM (inactive); in the test with SR, 0.332 µM (active).

For the compound `COC(=O)C(Cc1ccccc1)OC(=O)C(N)CC(=O)O` (stereo not drawn), the GI50 was > 100 µM (inactive) in the test on EKVX; > 100 µM (inactive) with SW-620; > 100 µM (inactive) in the test on MDA-MB-231; > 100 µM (inactive) in the test on MCF7; 5.11 µM (inactive) in the test on NCI-H23; > 100 µM (inactive) in the test with MDA-N. Further, the GI50 with A549, in the test on SF-295, in the test on HOP-92, in the test with NCI-H522, in the test with ACHN and with HOP-62 was > 100 µM (inactive) each time. The GI50 in the test on CAKI-1, in the test on SK-OV-3, with OVCAR-8, in the test on Malme-3M and in the test with SR was > 100 µM (inactive) throughout.

With `CCOC(=O)c1cc(Br)c(-c2onc(C)c2Br)[nH]1`, the GI50 with EKVX is 27.9 µM (inactive); in the test with SW-620, > 100 µM (inactive); with MDA-MB-231 it was 17.1 µM (inactive); in the test with MCF7 it was > 100 µM (inactive); in the test with NCI-H23 it was 49.3 µM (inactive); with MDA-N, > 100 µM (inactive). The GI50 with A549 is 56.1 µM (inactive); in the test with SF-295, 43.1 µM (inactive); in the test on HL-60 it was > 100 µM (inactive); with CCRF-CEM it was > 100 µM (inactive); in the test with HOP-92, 48.1 µM (inactive); in the test with HOP-62, 18.3 µM (inactive). The GI50 in the test with CAKI-1 was 45.7 µM (inactive); with SK-OV-3, 25.9 µM (inactive); with OVCAR-8, 27.6 µM (inactive); in the test on Malme-3M, 34.4 µM (inactive); with SR it was > 100 µM (inactive).

Turning to `CN(C(=O)[C@H](NC(=O)OCc1ccccc1)c1ccccc1)C1CCCCC1N1CCCC1` (stereo partly drawn), the GI50 is > 100 µM (inactive) in the test with EKVX; > 100 µM (inactive) in the test on SW-620; > 100 µM (inactive) in the test with MDA-MB-231; 98.2 µM (inactive) in the test with MCF7; > 100 µM (inactive) in the test with NCI-H23; > 100 µM (inactive) with MDA-N. The GI50 in the test with A549 is > 100 µM (inactive); in the test on SF-295 it was > 100 µM (inactive); in the test with CCRF-CEM it was 38.8 µM (inactive); with HOP-92 it was 31.5 µM (inactive); in the test with NCI-H522, 43.9 µM (inactive); in the test on ACHN, > 100 µM (inactive). Besides, the GI50 with HOP-62 was > 100 µM (inactive); with CAKI-1, > 100 µM (inactive); in the test with SK-OV-3, > 100 µM (inactive); in the test on OVCAR-8, > 100 µM (inactive); in the test with Malme-3M, 48.4 µM (inactive); in the test with SR it was 20.7 µM (inactive).

`CN(Cc1cnc2nc(N)nc(N)c2n1)c1ccc(C(=O)NC(CO)CCCO)cc1` (stereo not drawn): the GI50 in the test on EKVX, with SW-620, with MDA-MB-231, in the test on MCF7, in the test on NCI-H23 and with MDA-N was > 100 µM (inactive) each time. In addition, the GI50 with SF-295, in the test on HL-60, in the test on CCRF-CEM, with ACHN, in the test on HOP-62 and in the test on CAKI-1 was > 100 µM (inactive) in each case. The GI50 with SK-OV-3, with OVCAR-8, in the test with Malme-3M and in the test on SR was > 100 µM (inactive) each time.

For the compound `c1ccc2c(-c3ccnc(-c4c[nH]c5ccccc45)n3)c[nH]c2c1`, the GI50 in the test on EKVX is 6.4 µM (inactive); with SW-620, 4.86 µM (inactive); in the test on MDA-MB-231 it was 1.85 µM (inactive); with MCF7 it was 2.74 µM (inactive); in the test on MDA-N, 2.78 µM (inactive); in the test with A549, 3.27 µM (inactive). In addition, the GI50 was 2.93 µM (inactive) in the test on SF-295; 2.29 µM (inactive) with HL-60; 1.51 µM (inactive) in the test with CCRF-CEM; 1.7 µM (inactive) with HOP-92; 3.13 µM (inactive) in the test on ACHN; 10.4 µM (inactive) in the test with HOP-62. For the same compound, the GI50 is 4.25 µM (inactive) in the test with CAKI-1, 10.7 µM (inactive) in the test on SK-OV-3, 5.93 µM (inactive) in the test on OVCAR-8 and 4.25 µM (inactive) with SR.
